In publication PMC9570490, “Novel Morpholine-Bearing Quinoline Derivatives as Potential Cholinesterase Inhibitors: The Influence of Amine, Carbon Linkers and Phenylamino Groups” (International Journal of Molecular Sciences, 2022):
≈ marks a conversion by molar mass, not a printed value. Entries after “also recorded” stand apart in the source; their conditions may differ. Read-outs that look alike come from different tables or passages of the source. Marks after values point to notes of the source that are not given here.

Legend:
[1] = Water solubility, shake-flask method; assay type: physicochemical; settings: thermodynamic from solid, double distilled water, 37 °C
Description: Water solubility is regarded as another vital descriptor for BBB penetration, where high solubility is considered as a prerequisite for a rapid absorption and higher bioavailability of a drug candidate. […] With this experiment, we have obtained their data as 0.62, 3.03, 12.9, and […] for the selected compounds 11a, 11g, 12a, and 12c, respectively.
Solubility was determined by using the shake-flask method.The desired amount of the compound was placed in a test tube, to which an appropriate amount of double distilled water was introduced. The suspension was agitated on a plate shaker at 37 °C for 24 h. After centrifuging, HPLC analyses of supernatant was performed. The solubility of the compound was obtained from its HPLC result.

[2] = Lipophilicity (LogP) determination, shake-flask octanol/water; assay type: physicochemical; settings: HPLC, read-out: LogP (experimental)
Description: For anti-Alzheimer drug candidates, the ability to cross the blood–brain barrier (BBB) and to enter the central nervous system (CNS) is crucial to achieve their pharmacological target binding and activity, and CNS drugs require more strict rules for a successful penetration. […] Besides, for molecules to penetrate the BBB, a topological polar surface area (TPSA) value less than 90 Å ^2 is usually needed and molecules with a TPSA of greater than 120 Å ^2 tend to be poor in permeating cell membranes. Therefore, the molar mass (MW), LogP, and TPSA of all target compounds were simulated by ChemDraw 19.0 (Table 1). […] Because LogP was thought as an important physicochemical parameter to evaluate the ability to cross BBB, the LogP of some compounds was further assessed in experiments.
The lipophilicities of test compounds were determined using the traditional shake-flask method. A solid test compound (2 mg) was placed into a 10 mL pear-shaped flask, and measured volumes of octanol and water were added for logP determination. The resulting biphasic mixture was stirred for 24 h and then left without stirring for 12 h to allow phase separation. The test compound in each phase was sampled and quantitated using HPLC. The areas under the peaks were divided and the log taken.

[3] = target: T1, AChE (EC 3.1.1.7, from electric eel) (Electrophorus electricus, UniProt O42275); assay: biochemical; settings: for IC50: means ± SD, at least three independents
T1 construct: purchased Sigma-Aldrich
Description: (§1) AChE and BChE inhibitory activities of compounds were determined by using a modified Ellman’s method. AChE (EC 3.1.1.7, from electric eel), BChE (EC 3.1.1.8, from horse serum), 5,5′-dithiobis(2nitrobenzoic acid) (DTNB), acetylthiocholine iodide (ATCI) and butyrylthiocholine iodide (BTCI) were purchased from Sigma-Aldrich. The reaction mixture contained 140 μL of 100 mM sodium phosphate buffer (pH 8.0), the enzyme solution (either 0.05 U/mL of AChE, 20 μL; or 0.05 U/mL of BChE, 20 μL), and test compound (20 μL). Assayed solutions of test compounds were pre-incubated with corresponding ChE at 25 °C for 15 min. The reaction was initiated by the addition of 10 μL of 10 mM DTNB and 10 μL of 7.5 mM substrate (ATCI or BTCI). The activity was determined by measuring the increase in absorbance at 412 nm at 37 °C in 10 min intervals using a microplate reader. The percentage of inhibition was calculated from the measured data as follows: (Ac − Ai)/Ac × 100%, where Ai and Ac represent the change in the absorbance in the presence of inhibitor and without inhibitor, respectively.

[4] = target: T2, BChE (EC 3.1.1.8, from horse serum) (Equus caballus, UniProt P81908); assay: biochemical; settings: means ± SD, at least three independents
T2 construct: BChE (EC 3.1.1.8, from horse serum); purchased Sigma-Aldrich; host or cells: horse serum
Description: as §1

AChE = target: T3, AChE (Electrophorus electricus, UniProt O42275); assay: Enzyme kinetic analysis against AChE (reversibility, Lineweaver-Burk, Ki); assay type: biochemical; settings: for type of AChE inhibition: Lineweaver-Burk plots; for Ki: Lineweaver-Burk secondary plots, substrate ATCI, read-out: Ki (inhibition constant) against AChE; for reversibility of AChE inhibition: plots of initial velocity versus enzyme concentration
T3 construct: purchased Sigma-Aldrich
Description: The kinetic characteristics of two active compounds, 11a and 11g, against AChE was also studied to elucidate the type of inhibition and the inhibition constant. The analysis was carried out by measuring the enzyme’s activity at different concentrations of substrate (0 μM–10.0 μM). The acquired inhibition data were further depicted with the Lineweaver–Burk method followed by inhibition constant (Ki) calculation using Lineweaver–Burk secondary plots. […] This pattern of inhibition is usually the result of a combination of partially competitive and non-competitive inhibitors.
In order to investigate the reversibility of compounds 11a and 11g to AChE, different concentrations of compounds (0−10 μM) and five different concentrations of AChE (0.025−0.10 U/mL) were measured at 412 nm after a 2 min incubation at 37 °C. Values were measured in triplicate for the velocity and enzyme concentration profiles. Velocity (V) was calculated from the measured data as follows: V = (Ac−Ai)/2, where Ai and Ac represent the change in absorbance in the presence and absence of […], respectively. All data were analyzed by OriginPro 2021.
For each experiment, the reaction was started by adding substrate and the progression curve was recorded at 412 nm after two minutes of incubation at 37°C. […] The slopes of these inverse plots were then plotted against the compound concentrations in the correlation analysis, and Ki was determined as the intercept on the negative x-axis. All rate measurements were performed in triplicate and data analysis was performed using OriginPro 2021.

[5] = ABTS radical-scavenging assay
Description: ABTS radical-scavenging activity was measured by using the modified method. The test compound was dissolved in ethanol as 1.0 mg/mL, 0.5 mg/mL, 0.25 mg/mL, 0.125 mg/mL, 0.0625 mg/mL, and 0.03125 mg/mL. Similarly, the ethanol solution of Trolox with the same concentration gradient was prepared as a positive control. ABTS solution at a concentration of 7 mM and potassium persulfate solution at a concentration of 2.45 mM with distilled water were also prepared. The ABTS solution and the potassium persulfate solution were mixed in equal amounts, and then placed in the dark and protected from light for 12 h. The ABTS standard solution was diluted with ethanol until the absorbance value at 734 nm was in the range of 0.7 ± 0.05. Then, 3900 µL of ABTS cation solution was mixed with 100 µL of test compound at different concentrations. The samples were kept in the dark for 10 min at room temperature and absorption was measured at 734 nm on a spectrophotometer. The percentage of ABTS radical-scavenging activity was calculated as follows: (Ac−Ai)/Ac × 100%, where Ai and Ac represented the change in absorbance in the presence and absence of the test sample, respectively.

[6] = target: T1, AChE (EC 3.1.1.7, from electric eel); settings: cited from earlier work
[7] = target: T2, BChE (EC 3.1.1.8, from horse serum); settings: cited from earlier work

T2 sequence (P81908 whole entry): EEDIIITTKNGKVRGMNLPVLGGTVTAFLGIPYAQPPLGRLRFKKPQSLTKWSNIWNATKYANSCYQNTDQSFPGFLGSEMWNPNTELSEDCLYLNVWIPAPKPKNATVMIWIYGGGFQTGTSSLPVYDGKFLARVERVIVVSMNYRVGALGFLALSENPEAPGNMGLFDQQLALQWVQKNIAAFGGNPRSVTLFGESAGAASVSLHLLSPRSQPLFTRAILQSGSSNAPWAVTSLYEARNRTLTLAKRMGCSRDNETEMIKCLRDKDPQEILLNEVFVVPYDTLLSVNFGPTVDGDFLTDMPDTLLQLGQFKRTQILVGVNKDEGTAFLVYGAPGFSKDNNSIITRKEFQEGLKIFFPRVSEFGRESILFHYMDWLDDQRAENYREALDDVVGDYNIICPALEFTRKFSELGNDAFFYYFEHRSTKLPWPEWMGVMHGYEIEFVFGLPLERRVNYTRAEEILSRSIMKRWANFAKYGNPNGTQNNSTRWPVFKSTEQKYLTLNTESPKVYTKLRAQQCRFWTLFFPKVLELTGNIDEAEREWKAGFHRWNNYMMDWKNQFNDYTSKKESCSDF
T3 sequence (O42275 24-633): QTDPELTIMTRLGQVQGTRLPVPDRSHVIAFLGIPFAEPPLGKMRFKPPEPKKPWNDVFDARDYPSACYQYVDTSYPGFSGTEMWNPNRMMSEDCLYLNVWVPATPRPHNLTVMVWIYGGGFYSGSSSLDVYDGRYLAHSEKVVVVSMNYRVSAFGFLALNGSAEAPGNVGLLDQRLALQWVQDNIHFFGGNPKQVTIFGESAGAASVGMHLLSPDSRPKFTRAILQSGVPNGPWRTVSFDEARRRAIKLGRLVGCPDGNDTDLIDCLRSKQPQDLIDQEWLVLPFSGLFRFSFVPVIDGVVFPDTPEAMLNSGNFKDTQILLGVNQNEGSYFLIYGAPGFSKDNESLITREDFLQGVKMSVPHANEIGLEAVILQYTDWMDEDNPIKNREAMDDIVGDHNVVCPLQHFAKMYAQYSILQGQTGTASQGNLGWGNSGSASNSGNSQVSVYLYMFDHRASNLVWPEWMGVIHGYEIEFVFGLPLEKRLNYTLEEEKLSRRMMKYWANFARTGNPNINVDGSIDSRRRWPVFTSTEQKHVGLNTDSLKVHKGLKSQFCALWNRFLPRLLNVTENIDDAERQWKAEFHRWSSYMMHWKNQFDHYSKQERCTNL
T1 sequence (O42275 24-633): as above

Row | Structure (SMILES) | solubility at 24 h [1] | logP at 24 h [2] | SI for AChE = IC50 BChE/IC50 AChE [3] | IC50 [3] | IC50 [4] | type of AChE inhibition (AChE) | Ki (AChE) | reversibility of AChE inhibition (AChE) | ABTS radical-scavenging IC50 [5] | IC50 [5] | SI for AChE = IC50 BChE/IC50 AChE [6] | IC50 [6] | IC50 [7]
1 | COc1cc2c(Nc3ccccc3)c([N+](=O)[O-])cnc2cc1OCCCN1CCOCC1 [11a, 6-Methoxy-7-(3-Morpholinopropoxy)-3-Nitro-4-Phenylamino-Quinoline] | 620 µg/mL (≈ 1.41 mM) | 3.82 | 16.37 | 4.94 ± 0.15 µM | 80.9 ± 2.31 µM | mixed-type AChE inhibitors; also recorded: mixed type of inhibition | 2.03 µM | reversible inhibitors | – | – | – | – | –
2 | COc1cc2c(Nc3ccccc3)c([N+](=O)[O-])cnc2cc1OCCN1CCOCC1 [11g, 6-Methoxy-7-(2-Morpholinoethoxy)-3-Nitro-4-Phenylamino-Quinoline] | 3030 µg/mL (≈ 7.14 mM) | 3.55 | – | 1.94 ± 0.13 µM | 28.4 ± 1.85 µM | mixed-type AChE inhibitors; also recorded: mixed type of inhibition | 0.64 µM | reversible inhibitors | 17.50 ± 2.71 µg/mL | 41.2 ± 6.38 µM | – | – | –
3 | COc1cc2c(Nc3ccccc3Cl)c([N+](=O)[O-])cnc2cc1OCCCN(C)Cc1ccccc1 [B] | – | – | – | – | – | – | – | – | – | – | 3.08 ^e | – | –
4 | COc1ccc(Nc2c([N+](=O)[O-])cnc3cc(OCCCN4CCC(C)CC4)c(OC)cc23)cc1 [C] | – | – | – | – | – | – | – | – | – | – | 15.43 ^f | 1.2 ± 0.18 µM | 18.5 ± 1.2 µM
